Reference: publication PMC5766233, “Ternary copper(II) complex: NCI60 screening, toxicity studies, and evaluation of efficacy in xenograft models of nasopharyngeal carcinoma” (PLoS ONE, 2018)

How the values were obtained:
[1] = test system: C666-1-GFP-Luc2 xenograft; test: In vivo efficacy in C666-1-GFP-Luc2 xenograft model; set-up: species or system NOD scid gamma female mice
Description: Next, we assessed the anticancer efficacy of the Cu(II) complex on another NPC xenograft, the EBV positive C666-1-GFP-Luc2 cells. […] Two mice in this group completed the 14 doses but died on the last day of the experiment while one mouse died on day 13 after receiving 12 doses of the Cu(II) complex. […] Harvested major organs sections stained with hematoxylin and eosin dyes were also examined. […] Therefore, no toxicity was found in mice carrying nasopharyngeal C666-1-GFP-Luc2 when treated with Cu(II) complexes at the doses of 4 mg/kg and 5 mg/kg. The underlying cause of death, presumed to be due to toxicity at the dose of 6 mg/kg, could not be ascertained conclusively because although the liver size was smaller in the treated group, the histopathology of the liver appeared normal and no other abnormalities were detected other than lower spleen size.
2.0 x 10^6 HK1 or C666-1-GFP-Luc2 cells in 100 μl RPMI media mixed with matrigel (BD Matrigel Basement Membrane Matrix; BD Biosciences, Bedford, MA, USA) was inoculated subcutaneously into the right lower flank of the NSG mice. Tumor growth was monitored and measured every other day using a digital caliper (Mitutoyo America Corporation, Aurora, Illinois, USA) until they reached 100–250 mm^3. Then, the mice were randomly assigned into treatment groups. The mice bearing HK1 xenograft tumor were divided into 3 treatment groups and a control (normal saline) group. The first batch received normal saline (one injection daily for 5 days), 6 mg/kg (one injection daily for 5 days) and 8 mg/kg (one injection every other day for 3 doses) of Cu(II) complex while the second batch received normal saline (one injection daily for 4 days), 4 mg/kg (one injection daily for 4 days), 6 mg/kg (one injection daily for 4 days) and 8 mg/kg (one injection every other day for 2 doses) of Cu(II) complex via intraperitoneal route.
Subsequently, for the efficacy assay using mice bearing C666-1-GFP-Luc2 cells, 3 sets of control group versus experimental group were tested in three independent experiments. Mice were randomly assigned into 4, 5 or 6 mg/kg Cu(II) complex and their control groups respectively. Injections were given once daily for 12 to 18 days. Body weight change, food intake, signs of toxicity/morbidity as well as mortality were observed and recorded daily for the duration of the entire experiment. Tumor volumes were determined using a caliper thrice weekly. Tumor volumes were calculated according to the following formula: Tumor volume (mm^3) = (length [mm] X width^2 [mm^2])/2. At the end point of the studies, mice were placed under anesthesia for blood collection via submandibular and cardiac puncture before they were sacrificed for histopathological investigations. Tumors were harvested, imaged, weighed and fixed in formalin.
(§1) All H&E-stained tissue section slides were examined under Nikon Eclipse Ni microscope (Nikon Instruments Inc., New York, USA) and microscopic images were taken using 20x and 40x objectives. For H&E tumor section slides, the percentage of tumor necrosis was determined qualitatively using microscope by the histopathologist in order to estimate the percentage of necrotic area induced by the Cu(II) complex in the tumors. For determination of femoral bone marrow suppression, low power (10x magnification) objective was used to scan the slides while 100x magnification to assess the degree of cellularity and amount of fat present.
Firstly, 4 ml of rhodamine stock solution was combined with 46 ml of acetate buffer solution in order to prepare a working rhodamine solution. Tissue sections were prepared, deparaffinized and hydrated in distilled water. Then, a loosely capped staining jar containing working rhodamine was warmed in the microwave oven (Panasonic Corporation, Osaka, Japan). The slide with tissue section was placed in warmed working rhodamine solution and reheated using microwave oven. […]

[2] = Hematotoxicity evaluation (blood, spleen, bone marrow) in xenograft bearing mice; type: in vivo, NOD scid gamma female mice; conditions: for Band neutrophil / Basophils / Eosinophils / Hemoglobin / Lymphocytes / MCHC / MCV / Monocytes / PVC / Plasma protein / RBC / Segmented neutrophil / Thrombocytes / WBC: C666-1-GFP-Luc2 xenograft mice, mean ± SEM
Protocol: Values of hematological parameters of mice bearing C666-1-GFP-Luc2, an Epstein-barr virus (EBV) positive NPC cell line xenografts which were treated with 4 and 5 mg/kg of the Cu(II) complex were compared with those from control groups (Table 3). […] This indicated absence of anemia.
We further investigated the effects of Cu(II) complex on spleen and bone marrow (from femur) responses.
Blood samples were collected into BD Microtainer Tubes containing dipotassium EDTA (Becton, Dickinson and Company, New Jersey, USA) and submitted to the Veterinary Laboratory Services Unit, Faculty of Veterinary Medicine, Universiti Putra Malaysia, Serdang, Malaysia, for full blood count (FBC) analysis.
Major organs, bones and excised tumors were preserved in 10% neutral buffered formaldehyde solution (Leica Biosystems, Germany) for 24 to 48 h and subsequently processed into formalin-fixed paraffin-embedded tissue blocks following standard tissue processing protocol using Leica ASP300 S (Leica Biosystems, Nussloch, Germany). Fixed bones (skull, femur and tibia) were decalcified with Surgipath Decalcifier I (Leica Biosystems, Germany) for 4 to 6 h depending on size before tissue processing. After paraffin embedding, tissue blocks were sectioned ([…]) using rotary microtome Microm HM340E (Thermo Scientific, Walldorf, Germany) and stained with hematoxylin and eosin (H&E) dyes using Leica Autostainer XL (Leica Biosystems, Nussloch, Germany) before histopathological examination.
as §1

In the case of `CC(C)(N)C(=O)[O-].O.O=[N+]([O-])[O-].[Cu+2].c1cnc2c(c1)ccc1cccnc12` [Cu(II) complex, [Cu(phen)(C-dmg)(H2O)]NO3], the tumor growth ([1]; 4 mg/kg ip daily, 18 days) was “not effective”, the “survival throughout the experiment” value ([1]; 6 mg/kg ip daily) was “only one mouse out of four” and the “Copper staining of liver sections” value ([1]; 4, 5 and 6 mg/kg) was “negative for copper deposits”. For the same compound, the body weight ([1]; 4, 5 and 6 mg/kg) was “little influence”, the “weight of vital organs” value ([1]; 4, 5 and 6 mg/kg, except for liver in the 6 mg/kg group) was “no significant differences” and the tolerability ([1]; 4 and 5 mg/kg dose regimens) was “well tolerated”. For the same compound, the tumor growth ([1]; 5 and 6 mg/kg ip daily) was “significant tumor growth inhibition”, the “Histopathological examination of heart, liver, kidney and lung” value ([1]; all the groups) was “did not show any obvious abnormal changes” and the “necrotic area in the tumor xenografts” value ([1]; treated groups vs control groups, concentration dependent) was “higher percentage of necrotic area”. For the same compound, the Band neutrophil ([2]; 4 mg/kg) was 0.1 ± 0.0 x10^9/L, the Basophils ([2]; 4 mg/kg) was 0.0 ± 0.0 x10^9/L and the Eosinophils ([2]; 4 mg/kg) was 0.0 ± 0.0 x10^9/L. For the same compound, the Hemoglobin ([2]; 4 mg/kg) was 126.8 ± 10.0 g/L, the Lymphocytes ([2]; 4 mg/kg) was 0.2 ± 0.0 x10^9/L and the MCHC ([2]; 4 mg/kg) was 308.5 ± 4.9 g/L. The MCV ([2]; 4 mg/kg) was 52.9 ± 1.2 fL, the Monocytes ([2]; 4 mg/kg) was 0.2 ± 0.1 x10^9/L and the PVC ([2]; 4 mg/kg) was 0.4 ± 0.0 L/L. The Plasma protein ([2]; 4 mg/kg) was 59.5 ± 2.2 g/L, the RBC ([2]; 4 mg/kg) was 7.8 ± 0.7 x10^12/L and the Segmented neutrophil ([2]; 4 mg/kg) was 2.0 ± 0.4 x10^9/L. The Thrombocytes ([2]; 4 mg/kg) was 1659.0 ± 120.4 x10^9/L, the WBC ([2]; 4 mg/kg) was 2.5 ± 0.5 x10^9/L and the Band neutrophil ([2]; 5 mg/kg) was 0.1 ± 0.0 x10^9/L. The Basophils ([2]; 5 mg/kg) was 0.0 ± 0.0 x10^9/L, the Eosinophils ([2]; 5 mg/kg) was 0.0 ± 0.0 x10^9/L and the Hemoglobin ([2]; 5 mg/kg) was 133.7 ± 4.4 g/L. For the same compound, the Lymphocytes ([2]; 5 mg/kg) was 0.1 ± 0.0 x10^9/L, the MCHC ([2]; 5 mg/kg) was 308.3 ± 5.0 g/L and the MCV ([2]; 5 mg/kg) was 56.2 ± 1.8 fL. The Monocytes ([2]; 5 mg/kg) was 0.2 ± 0.0 x10^9/L, the PVC ([2]; 5 mg/kg) was 0.4 ± 0.0 L/L and the Plasma protein ([2]; 5 mg/kg) was 55.7 ± 2.5 g/L. For the same compound, the RBC ([2]; 5 mg/kg) was 7.8 ± 0.4 x10^12/L, the Segmented neutrophil ([2]; 5 mg/kg) was 2.5 ± 0.2 ^* x10^9/L and the Thrombocytes ([2]; 5 mg/kg) was 1288.2 ± 155.8 x10^9/L. For the same compound, the WBC ([2]; 5 mg/kg) was 2.9 ± 0.3 ^* x10^9/L, the spleen weight ([2]; C666-1-GFP-Luc2 bearing mice, 5 and 6 mg/kg, vs control groups) was “significantly lower weight” and the spleen weight ([2]; HK1 bearing mice, 4, 6 and 8 mg/kg) was “did not show weight loss”. The “bone marrow suppression (femur)” value ([2]; all treated groups) was “no evidence of bone marrow suppression”.
